Consider 23 compounds from US20050209195A1, “Indolinone derivatives” (Cell Therapeutics Europe S.r.I, priority 2004, published 2005).

The target of data set [1] is T1, human Ret TKR-catalytic domain (Homo sapiens, UniProt P07949).
T1 construct: human Ret TKR-catalytic domain; purchased ProQinase
T1 sequence (P07949 724-1016 limits assumed): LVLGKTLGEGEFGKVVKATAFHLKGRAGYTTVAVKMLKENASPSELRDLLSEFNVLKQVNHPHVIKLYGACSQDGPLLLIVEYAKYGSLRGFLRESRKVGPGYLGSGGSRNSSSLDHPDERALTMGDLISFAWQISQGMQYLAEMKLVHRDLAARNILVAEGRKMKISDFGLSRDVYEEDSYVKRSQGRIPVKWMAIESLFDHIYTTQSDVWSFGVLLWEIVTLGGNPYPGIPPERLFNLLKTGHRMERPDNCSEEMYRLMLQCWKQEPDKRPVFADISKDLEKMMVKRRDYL
Kind of data set: DELFIA Ret Kinase Assay (cell-free). The format is biochemical. The procedure: In order to evidence and quantify inhibitory activity on Ret tyrosine kinase, the most representative compounds of the invention were tested with a dedicated DELFIA kinase assay, using a human tyrosine-kinase receptor (Ret TKR) recombinant form (human Ret TKR-catalytic domain) available from ProQinase as the tyrosine kinase.
After 10 min. incubation at 30° C., the kinase reactions were worked up as in the DELFIA cKit Kinase Assay.

Data set [2] addresses T2, Human cKit Tyrosine Kinase Receptor (human cKit RTK-catalytic domain) (Homo sapiens, UniProt P10721).
T2 construct: human cKit RTK-catalytic domain; purchased Panvera-Invitrogen P3080
Kind of data set: DELFIA cKit Tyrosine Kinase Assay (cell-free). The format is biochemical. The procedure: The compounds of the invention were tested with a dedicated cell-free kinase assay for the evaluation of the inhibiting activity on tyrosine kinases.
In more detail, the assay was a DELFIA™ (Dissociation Enhanced Time-Resolved Fluorometric Assay) Tyrosine Kinase Assay™ (PerkinElmer), a highly sensitive, reproducible ELISA assay that allows to evaluate the activity of a tyrosine kinase.
Human cKit Tyrosine Kinase Receptor (human cKit RTK-catalytic domain), commercially available from Panvera-Invitrogen (Cat. N^o. P3080), was used as the tyrosine kinase.
After 1 hour incubation at room temperature and three washings with 1×DELFIA Wash Buffer (PerkinElmer), the phosphotyrosine residues of the acceptor were detected with an europium-labelled anti-phosphotyrosine monoclonal antibody (DELFIA Eu-N1 labelled anti-phosphotyrosine antibody PT66, PerkinElmer) and, after a further hour incubation at room temperature and three washings with 1×DELFIA Wash Buffer, overall phosphorylation of biotinylated polyGAT was determined by addition of Enhancement Solution (PerkinElmer) and fluorimetric analysis of the plates (α-Fusion FP HT, PerkinElmer) in the “Time-Resolved Fluorescence” mode.

The subject of data set [3] is NIH3T3^MEN2A(C634R) cells. The data set can be described thus: Survival curves by Coulter Counter cell count, 72 h. The format is cell-based, murine. Conditions: Mus musculus, NIH3T3MEN2A, 72 h treatment, read-out: Cont at 72 h IC50. As for the experimental part: (§1) NIH3T3 Murine fibroblasts and the transfected line NIH3T3^MEN2A(C634R) were treated with increasing concentrations of the compounds of the invention for 72 h. Survival curves were obtained by Coulter Counter cell count. IC50s calculated from said curves are reported in Table 9: the higher sensitivity of the oncoprotein-expressing cell line is evident. The reversal of the morphologically transformed phenotype of NIH3T3^MEN2A (C634R) cells in the presence of the compounds of the invention was evaluated by contrast phase microscopy after 24 h treatment and photographically documented.

Data set [4] has as its system NIH3T3^MEN2A(C634R) cells. Kind of data set: Reversal of morphologically transformed phenotype, contrast phase microscopy, 24 h. The format is cell-based, murine. To be noted: 24 h treatment; for minimal effective concentration: Mus musculus, NIH3T3MEN2A, read-out: Morphology a 24 h: concentration from which reversal was observed. The procedure:
as §1

Setting [5] is: cell-free DELFIA, 50 ng Ret TKR, 3 μM ATP, 10 min. at 30° C., read-out: IC50.
Setting [6] is: cell-free DELFIA, 25 ng cKit TKR, 150 μM ATP, 20 minutes at 30° C., read-out: IC50.

Read-outs that look alike come from different tables or passages of the source.

T2 sequence (P10721 589-937 limits assumed): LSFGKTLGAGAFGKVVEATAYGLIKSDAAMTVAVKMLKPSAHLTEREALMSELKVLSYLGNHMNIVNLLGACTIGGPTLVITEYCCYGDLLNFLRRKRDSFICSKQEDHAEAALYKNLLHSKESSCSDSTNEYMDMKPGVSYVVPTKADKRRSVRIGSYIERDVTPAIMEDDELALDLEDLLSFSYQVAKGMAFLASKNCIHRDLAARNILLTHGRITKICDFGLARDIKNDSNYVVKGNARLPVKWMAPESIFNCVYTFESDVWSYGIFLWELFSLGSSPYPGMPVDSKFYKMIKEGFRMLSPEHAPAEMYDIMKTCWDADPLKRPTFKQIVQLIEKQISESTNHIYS

Broadly, the melting point is the temperature, or range, at which the solid turns liquid. On to `COc1cc2c(cc1OC)/C(=C\c1ccc(OC(=O)NC(C)(C)C)cc1)C(=O)N2`, for which the melting point was in the range of 238 to 240 °C.
For orientation: IC50 means the point on the concentration scale where inhibition reaches its midpoint. As for `COc1cc2c(cc1OC)/C(=C/c1ccc(OC(=O)CCCCNC(=O)OC(C)(C)C)cc1)C(=O)N2` [G.2, 5-tert-Butoxycarbonylamino-pentanoic Acid, (Z)-4-(5,6-dimethoxy-2-oxo-1,2-dihydro-indol-3-ylidenemethyl)phenyl Ester], the half-maximal inhibitory concentration (IC50) was found to be 3.45 µM in data set [1] (setting [5]) and 0.77 µM in data set [2] (setting [6]).
`CCCCCCNC(=O)Oc1ccc(/C=C2/C(=O)Nc3cc(OC)c(OC)cc32)cc1` [A.4, n-Hexyl Carbamic Acid, (E)-4-(5,6-dimethoxy-2-oxo-1,2-dihydro-indol-3-ylidenemethyl)phenyl Ester] returned a melting point of 168 to 170 °C. Moreover, the half-inhibitory concentration (IC50) in data set [1] (setting [5]) turned out to be 5.73 µM. Further, the IC50 in data set [2] (setting [6]) is 0.135 µM.
In the case of `CCCCCCCCCC(=O)Oc1ccc(/C=C2\C(=O)Nc3cc(OC)c(OC)cc32)cc1` [Example G.1, n-decanoic Acid, (Z)-4-(5,6-dimethoxy-2-oxo-1,2-dihydro-indol-3-ylidenemethyl)phenyl Ester], the melting point is 95 to 97 °C.
Consider `COc1cc2c(cc1OC)/C(=C\c1ccc(OC(=O)N3CCN(CCOCCO)CC3)cc1)C(=O)N2` [B.6, 4-[2-(2-Hydroxyethoxy)ethyl]piperazine-1-carboxylic Acid (E)-4-(5,6-dimethoxy-2-oxo-1,2-dihydro-indol-3-ylidenemethyl)phenyl Ester], for which the concentration for half-maximal inhibition (IC50) in data set [3] was determined as 5.6 ± 1.8 µM; in data set [1] (setting [5]) it was 6.65 µM; in data set [2] (setting [6]), 7.47 µM. In addition, the “Morphology a 24 h” value in data set [4] is “REVERSAL”. Also, the minimal effective concentration in data set [4] is not below 10 µM.
Turning to `COc1cc2c(cc1OC)/C(=C\c1ccc(OC(=O)N(CCO)CCO)cc1)C(=O)N2`, the melting point is 183 to 185 °C.
On to `CCOP(=O)(OCC)Oc1ccc(/C=C2/C(=O)Nc3cc(OC)c(OC)cc32)cc1` [Example C.2, (E)-4-(5,6-dimethoxy-2-oxo-1,2-dihydro-indol-3-ylidenemethyl)phenyl Diethyl Phosphate], for which the IC50 was found to be 1.7 ± 0.1 µM in data set [3], 63.5 µM in data set [1] and 5.09 µM in data set [2]. In addition, in data set [4], the “Morphology a 24 h” value is given as “REVERSAL”. For the same compound, the minimal effective concentration in data set [4] is not below 5 µM.
Turning to `CCCCCNC(=O)Oc1ccc(/C=C2/C(=O)Nc3cc(OC)c(OC)cc32)cc1` [A.3, n-Pentyl Carbamic Acid, (E)-4-(5,6-dimethoxy-2-oxo-1,2-dihydro-indol-3-ylidenemethyl)phenyl Ester], the melting point lay in the range of 173 to 175 °C. The IC50 in data set [3] turned out to be 2.2 ± 0.7 µM. Further, in data set [1] (setting [5]), the 50% inhibitory concentration (IC50) came to 1.78 µM. Further, the IC50 in data set [2] (setting [6]) was 0.38 ± 0.16 µM. In data set [4], the “Morphology a 24 h” value is recorded as “REVERSAL” and the minimal effective concentration is not below 5 µM.
For `COc1cc2c(cc1OC)/C(=C\c1ccc(OCCO)cc1)C(=O)N2` [D.1, (E) 3-[4-(2-hydroxyetoxy)benzylidene]-5,6-dimethoxy-1,3-dihydro-indol-2-one], the figures for the IC50 in data set [3], in data set [1] (setting [5]) and in data set [2] (setting [6]) were 4.3 ± 0.6 µM, 1.12 µM and 3.63 µM, respectively. In data set [4], the “Morphology a 24 h” value is reported as “REVERSAL”. Besides, the minimal effective concentration in data set [4] is not below 10 µM.
On to `COc1cc2c(cc1OC)/C(=C\c1ccc(OC(=O)c3cccnc3)cc1)C(=O)N2` [E.3, Nicotinic Acid, (E)-4-(5,6-dimethoxy-2-oxo-1,2-dihydro-indol-3-ylidenemethyl)phenyl Ester], for which the melting point lay in the range of 227 to 229 °C.
For `COc1ccc(OC(=O)Oc2ccc(/C=C3\C(=O)Nc4cc(OC)c(OC)cc43)cc2)cc1` [Example H.2, (Z)-4-(5,6-dimethoxy-2-oxo-1,2-dihydro-indol-3-ylidenemethyl)phenyl, 4-methoxyphenyl Carbonate], the half-inhibitory concentration (IC50) in data set [1] (setting [5]) was determined as 4.84 µM; in data set [2] (setting [6]) it was 0.28 µM.
Consider `COc1cc2c(cc1OC)/C(=C\c1ccc(OC(=O)c3cccn3C)cc1)C(=O)N2` [Example F.4, 1-Methyl-1H-pyrrole-2-carboxylic Acid, (E)-4-(5,6-dimethoxy-2-oxo-1,2-dihydro-indol-3-ylidenemethyl)phenyl Ester], for which the melting point was 165 to 167 °C.
For the compound `COc1cc2c(cc1OC)/C(=C\c1ccc(OC(=O)N3CCN(c4ccccc4)CC3)cc1)C(=O)N2` [B.7, 4-Phenylpiperazine-1-carboxylic Acid, (E)-4-(5,6-dimethoxy-2-oxo-1,2-dihydro-indol-3-ylidenemethyl)phenyl Ester], the melting point was more than 260 °C. The IC50 in data set [1] (setting [5]) amounted to 3.23 µM. The half-maximal inhibitory concentration (IC50) in data set [2] (setting [6]) worked out at 2.78 µM.
On to `COc1ccc(NC(=O)Oc2ccc(/C=C3/C(=O)Nc4cc(OC)c(OC)cc43)cc2)cc1`, for which the melting point was 189 to 191 °C.
Compound `COc1cc2c(cc1OC)/C(=C\c1ccc(OC(=O)CCCCNC(=O)OC(C)(C)C)cc1)C(=O)N2` [Example F.2, 5-tert-Butoxycarbonylamino-pentanoic Acid, (E)-4-(5,6-dimethoxy-2-oxo-1,2-dihydro-indol-3-ylidenemethyl)phenyl Ester] displayed a melting point of 101 to 103 °C. Further, the concentration for half-maximal inhibition (IC50) in data set [1] (setting [5]) amounted to 1.37 µM. The 50% inhibitory concentration (IC50) in data set [2] (setting [6]) was 1.2 µM.
`COc1cc2c(cc1OC)/C(=C\c1ccc(OC(=O)c3cnccn3)cc1)C(=O)N2` [F.5, Pyrazine-2-carboxylic Acid, (E)-4-(5,6-dimethoxy-2-oxo-1,2-dihydro-indol-3-ylidenemethyl)phenyl Ester] gave a melting point of more than 250 °C.
As to `COCCOCCOCC(=O)Oc1ccc(/C=C2/C(=O)Nc3cc(OC)c(OC)cc32)cc1` [F.3, [2-(2-Methoxy-ethoxy)-ethoxy]acetic Acid, (E)-4-(5,6-dimethoxy-2-oxo-1,2-dihydro-indol-3-ylidenemethyl)phenyl Ester], the melting point was in the range of 117 to 119 °C. Further, the IC50 in data set [1] (setting [5]) is 3.79 µM. Besides, the IC50 in data set [2] (setting [6]) came out at 5.08 µM.
As for `COc1cc2c(cc1OC)/C(=C/c1ccc(OC(=O)c3cccn3C)cc1)C(=O)N2` [G.3, 1-Methyl-1H-pyrrole-2-carboxylic Acid, (Z)-4-(5,6-dimethoxy-2-oxo-1,2-dihydro-indol-3-ylidenemethyl)phenyl Ester], the IC50 in data set [1] (setting [5]) stood at 6.38 µM; in data set [2] (setting [6]), 2.65 µM.
Regarding `CCCCCCCCCC(=O)Oc1ccc(/C=C2/C(=O)Nc3cc(OC)c(OC)cc32)cc1` [Example F.1, n-decanoic Acid, (E)-4-(5,6-dimethoxy-2-oxo-1,2-dihydro-indol-3-ylidenemethyl)phenyl Ester], the melting point was in the range of 138 to 140 °C.
For the compound `COc1cc2c(cc1OC)/C(=C\c1ccc(OC(=O)Nc3ccccc3)cc1)C(=O)N2` [Example A.1, Phenylcarbamic Acid, (E)-4-(5,6-dimethoxy-2-oxo-1,2-dihydro-indol-3-ylidenemethyl)phenyl Ester], the melting point fell in the range of 201 to 203 °C. In addition, the half-maximal inhibitory concentration (IC50) in data set [1] (setting [5]) amounted to 8.39 µM. Further, in data set [2] (setting [6]), the concentration for half-maximal inhibition (IC50) stood at 1.66 µM.
Take `COc1cc2c(cc1OC)/C(=C\c1ccc(OC(=O)N3CCOCC3)cc1)C(=O)N2` [B.2, Morpholine-4-carboxylic Acid, (E)-4-(5,6-dimethoxy-2-oxo-1,2-dihydro-indol-3-ylidenemethyl)phenyl Ester]: the melting point was 255 to 257 °C.
As to `COc1cc2c(cc1OC)/C(=C\c1ccc(OC(=O)c3ccccc3)cc1)C(=O)N2` [Example E.1, Benzoic Acid, (E)-4-(5,6-dimethoxy-2-oxo-1,2-dihydro-indol-3-ylidenemethyl)phenyl Ester], the melting point fell in the range of 228 to 230 °C.
For `COc1cc2c(cc1OC)/C(=C\c1ccc(OC(C)=O)cc1)C(=O)N2` [E.2, Acetic Acid, (E)-4-(5,6-dimethoxy-2-oxo-1,2-dihydro-indol-3-ylidenemethyl)phenyl Ester], the melting point fell in the range of 189 to 191 °C. For the same compound, the IC50 in data set [3] came out at 1.5 ± 0.05 µM. Also, in data set [4], the “Morphology a 24 h” value is recorded as “REVERSAL” and the minimal effective concentration was not below 5 µM.
